From patent US12358915B2, “METTL3 inhibitory compounds” (STORM THERAPEUTICS LTD., priority 2019, dated 2025) come the findings set out here.

This experiment has as its target T1, METTL3/14 (Homo sapiens, UniProt Q86U44).
T1 construct: The enzyme used was full-length his-tagged METTL3; His; made in house
Nature of the experiment: METTL3/14 methyltransferase assay (METTL3_14 RFMS, RapidFire mass spectrometry).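 Also: recombinant His-tagged METTL3 with FLAG-tagged METTL14 from baculovirus, SAH product quantified by mass spectrometry against isotope-labelled internal standards, 60 min at room temperature, scaled between no-RNA and DMSO-only wells.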 It counts as biochemical. The note with it: 5 nM METTL3/14, 0.2 μM RNA substrate, 0.5 μM SAM, lower limit of the assay IC50=5 nM, read-out: METTL3_14 RFMS IC50.

Where two headings read alike, the source gives them in different places.

T1 sequence (Q86U44 whole entry): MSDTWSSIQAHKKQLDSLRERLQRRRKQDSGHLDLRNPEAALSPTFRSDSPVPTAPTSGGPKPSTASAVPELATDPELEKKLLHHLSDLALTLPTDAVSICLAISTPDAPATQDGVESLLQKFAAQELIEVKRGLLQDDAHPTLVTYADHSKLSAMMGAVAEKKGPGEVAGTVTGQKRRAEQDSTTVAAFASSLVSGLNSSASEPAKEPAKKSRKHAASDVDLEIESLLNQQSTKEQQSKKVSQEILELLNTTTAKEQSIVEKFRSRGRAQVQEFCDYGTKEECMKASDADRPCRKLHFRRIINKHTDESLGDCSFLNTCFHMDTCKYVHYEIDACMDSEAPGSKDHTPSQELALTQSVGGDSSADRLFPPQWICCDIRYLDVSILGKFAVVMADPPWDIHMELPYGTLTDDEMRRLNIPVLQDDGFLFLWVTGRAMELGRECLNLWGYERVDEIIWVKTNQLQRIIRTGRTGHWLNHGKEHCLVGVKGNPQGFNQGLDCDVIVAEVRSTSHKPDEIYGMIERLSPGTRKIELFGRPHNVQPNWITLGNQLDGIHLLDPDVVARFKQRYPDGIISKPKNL
T1 sequence (Q9HCE5 whole entry partner): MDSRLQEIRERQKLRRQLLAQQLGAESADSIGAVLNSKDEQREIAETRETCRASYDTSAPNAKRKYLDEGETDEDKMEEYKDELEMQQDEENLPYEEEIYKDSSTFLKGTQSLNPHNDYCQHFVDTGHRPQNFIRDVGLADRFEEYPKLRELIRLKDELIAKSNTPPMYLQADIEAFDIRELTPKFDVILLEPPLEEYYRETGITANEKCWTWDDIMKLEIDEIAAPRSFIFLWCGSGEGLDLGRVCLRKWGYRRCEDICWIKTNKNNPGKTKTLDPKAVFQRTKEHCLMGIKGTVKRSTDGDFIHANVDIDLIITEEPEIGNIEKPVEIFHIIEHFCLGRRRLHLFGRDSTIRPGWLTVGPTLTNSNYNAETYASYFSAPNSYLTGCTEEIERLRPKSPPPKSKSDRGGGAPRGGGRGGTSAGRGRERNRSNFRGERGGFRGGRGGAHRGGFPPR
Experimental: The enzyme used was full-length his-tagged METTL3 co-expressed with full length FLAG-tagged METTL14 in a baculovirus expression system. […] After termination, plates were sealed, centrifuged and stored at 4° C. until analysis. […] Mass Spectrometry Analysis RNA methyltransferase activity was measured label free using the RapidFireTM mass spectrometry (RF/MS) platform. Stopped and stable assay plates were analyzed on the Agilent RF300 integrated autosampler/solid-phase extraction (SPE) system coupled to an ABSciex 4000 mass spectrometer for the generation of the product S-adenosyl homocysteine (SAH) and normalized to the ratio of signal of the two internal product standards, respectively. Solvent A was water containing 0.1% (v/v) TCA. Solvent B was acetonitrile/0.1% ammonium acetate (8:2, v/v). More specifically, plates were centrifuged at 4350 rpm for 10 min, samples were aspirated under vacuum for 600 ms, then loaded onto a C18 solid-phase extraction cartridge and washed for 3 s with solvent A at a flow rate of 1.5 mL/min. Retained product and internal standards were eluted with solvent B at a flow rate of 1 mL/min for 3 s and finally the cartridge was reequilibrated with solvent A for 500 ms.

What is called IC50 is the concentration that inhibits the measured activity by half. Regarding `CN(Cc1ccc2nc(CNC(=O)c3cc(=O)n4ccccc4n3)cn2c1)CC(C)(C)C` [Compound 205, N-[(6-{[(2,2-dimethylpropyl) (methyl)amino]methyl}imidazo [1,2-a]pyridin-2-yl)methyl]-4-oxo-4H-pyrido [1,2-a]pyrimidine-2-carboxamide], the IC50 (Compounds 63-265) stood at 197 nM. The same measure, in the same setting: to `CS(=O)(=O)CCNCc1ccc2nc(CNC(=O)c3cc(=O)n4ccccc4n3)cn2c1` [Compound 96, N-[(6-{[(2-methane-sulfonylethyl)amino]methyl}imidazo[1,2-a]pyridin-2-yl)methyl]-4-oxo-4H-pyrido [1,2-a]pyrimidine-2-carboxamide] belongs 947 nM. In the case of `CN(Cc1ccc2nc(CNC(=O)c3cc(=O)n4ccccc4n3)cn2c1)CC1CC1` [Compound 136, N-[(6-{[(cyclopropyl-methyl)(methyl)amino]methyl}imidazo[1,2-a]pyridin-2-yl)methyl]-4-oxo-4H-pyrido[1,2-a]pyrimidine-2-carboxamide], the IC50 (Compounds 63-265) amounted to 99 nM.

On to `CC(C)(C#N)CNCc1ccc2nc(CNC(=O)c3cc(=O)n4ccccc4n3)cn2c1` [Compound 275, N-[[6-[[(2-cyano-2-methyl-propyl)amino]methyl]imidazo[1,2-a]pyridin-2-yl]methyl]-4-oxo-pyrido[1,2-a]pyrimidine-2-carboxamide], for which the 50% inhibitory concentration (IC50) (Compounds 266-351) turned out to be 1240 nM.

For `CC(O)c1ccc2nc(CNC(=O)c3cc(=O)n4ccccc4n3)cn2c1` (stereo not shown) [Compound 57, N-{[6-(1-hydroxyethyl)imidazo[1,2-a]pyridin-2-yl]methyl}-oxo-4H-pyrido[1,2-a]pyrimidine-2-carboxamide], the concentration for half-maximal inhibition (IC50) (Compounds 1-62) was found to be 702 nM. Consider `O=C(NCc1cn2cc(CNCCCC(F)(F)F)ccc2n1)c1cc(=O)n2ccccc2n1` [Compound 81, 4-oxo-N-[(6-{[(4,4,4-trifluorobutyl)amino]methyl}imidazo[1,2-a]pyridin-2-yl)methyl]-4H-pyrido[1,2-a]pyrimidine-2-carboxamide], for which, where the note is “Compounds 63-265”, the 50% inhibitory concentration (IC50) amounted to 27.7 nM.

For the compound `O=C(NCc1cn2cc(CNCC3CCCNC3)ccc2n1)c1cc(=O)n2ccccc2n1` (stereo not shown) [Compound 239, 4-oxo-N-{[6-({[(piperidin-3-yl)methyl]amino}methyl)imidazo[1,2-a]pyridin-2-yl]methyl}-4H-pyrido[1,2-a]pyrimidine-2-carboxamide], the concentration for half-maximal inhibition (IC50) (Compounds 63-265) was 513 nM.

Turning to `CC1CCCN(Cc2ccc3nc(CNC(=O)c4cc(=O)n5ccccc5n4)cn3c2)C1` (stereo not shown) [Compound 139, N-({6-[(3-methylpiperidin-1-yl)methyl]imidazo[1,2-a]pyridin-2-yl}methyl)-4-oxo-4H-pyrido[1,2-a]pyrimidine-2-carboxamide], the IC50 (Compounds 63-265) is 32.6 nM. On the same count and under the same terms, to `CC1(C)CCCCN1Cc1ccc2nc(CNC(=O)c3cc(=O)n4ccccc4n3)cn2c1` [Compound 194, N-({6-[(2,2-dimethylpiperidin-1-yl)methyl]imidazo[1,2-a]pyridin-2-yl}methyl)-4-oxo-4H-pyrido[1,2-a]pyrimidine-2-carboxamide] belongs 305 nM; to `O=C(NCc1cn2cc(CNc3ccc(F)cn3)ccc2n1)c1cc(=O)n2ccccc2n1` [Compound 196, N-[(6-{[(5-fluoropyridin-2-yl)amino]methyl}imidazo[1,2-a]pyridin-2-yl)methyl]-4-oxo-4H-pyrido[1,2-a] pyrimidine-2-carboxamide], 597 nM. Turning to `O=C(NCc1cn2cc(C3CC3)ccc2n1)c1cc(=O)n2ccccc2n1` [Compound 59, N-({6-cyclopropylimidazo[1,2-a]pyridin-2-yl}methyl)-4-oxo-4H-pyrido[1,2-a]pyrimidine-2-carboxamide], the 50% inhibitory concentration (IC50) (Compounds 1-62) was found to be 939 nM. Same read-out and setting: then `O=C(NCc1cn2cc(Br)ccc2n1)c1cc(=O)n2ccccc2n1` [Compound 23, N-({6-bromoimidazo[1,2-a]pyridin-2-yl}methyl)-4-oxo-4H-pyrido[1,2-a]pyrimidine-2-carboxamide], with 1790 nM. For the compound `CC1(C)CCCN(Cc2ccc3nc(CNC(=O)c4cc(=O)n5ccccc5n4)cn3c2)C1` [Compound 141, N-({6-[(3,3-dimethylpiperidin-1-yl)methyl]imidazo[1,2-a]pyridin-2-yl}methyl)-4-oxo-4H-pyrido[1,2-a]pyrimidine-2-carboxamide], where the note is “Compounds 63-265”, the IC50 was 14.5 nM. Take `O=C(NCc1cn2cc(CNC[C@@H]3C[C@H]4CC[C@@H]3C4)ccc2n1)c1cc(=O)n2ccccc2n1` [Compound 347, N-({6-[({[(1R,2R,4S)-bicyclo[2.2.1]heptan-2-yl]methyl}amino)methyl]imidazo[1,2-a]pyridin-2-yl}methyl)-4-oxo-4H-pyrido[1,2-a]pyrimidine-2-carboxamide]: the IC50 (Compounds 266-351) is 7.5 nM. On to `CC(C)(C)OC(=O)N1CCCCC1CNCc1ccc2nc(CNC(=O)c3cc(=O)n4ccccc4n3)cn2c1` (stereo not shown) [Compound 102, tert-butyl 2-{[({2-[({4-oxo-4H-pyrido[1,2-a]pyrimidin-2-yl} formamido)methyl]imidazo[1,2-a]pyridin-6-yl}methyl)amino]methyl}piperidine-1-carboxylate], for which the concentration for half-maximal inhibition (IC50) (Compounds 63-265) was 429 nM. As for `CC1(C)CC1CNCc1ccc2nc(CNC(=O)c3cc(=O)n4ccccc4n3)cn2c1` (stereo not shown) [Compound 159, N-{[6-({[(2,2-dimethyl-cyclopropyl)methyl]amino}methyl)imidazo [1,2-a]pyridin-2-yl]methyl}-4-oxo-4H-pyrido [1,2-a]pyrimidine-2-carboxamide], the IC50 (Compounds 63-265) turned out to be 19.5 nM.

Regarding `Cc1cccn2cc(CNC(=O)c3cc(=O)n4ccccc4n3)nc12` [Compound 27, N-({8-methylimidazo[1,2-a]pyridin-2-yl}methyl)-4-oxo-4H-pyrido[1,2-a]pyrimidine-2-carboxamide], the IC50 (Compounds 1-62) was found to be 6610 nM.

Take `O=C(NCc1cn2cc(CNCC3CCOC3)ccc2n1)c1cc(=O)n2ccccc2n1` (stereo not shown) [Compound 120, 4-oxo-N-{[6-({[(oxolan-3-yl)methyl]amino}methyl)imidazo[1,2-a]pyridin-2-yl]methyl}-4H-pyrido [1,2-a]pyrimidine-2-carboxamide]: for the setting “Compounds 63-265”, the concentration for half-maximal inhibition (IC50) came to 24.7 nM.

Consider `CC1(C)CCC(CNCc2ccc3nc(CNC(=O)c4cc(=O)n5ccccc5n4)cn3c2)O1` (stereo not shown) [Compound 143, N-{[6-({[(5,5-dimethyloxolan-2-yl)methyl]amino}methyl)imidazo[1,2-a]pyridin-2-yl]methyl}-4-oxo-4H-pyrido[1,2-a] pyrimidine-2-carboxamide], for which the half-maximal inhibitory concentration (IC50) (Compounds 63-265) is 136 nM.

On to `Cc1ccc2c(=O)cc(C(=O)NCc3cn4cc(CNCC5CCCCC5)ccc4n3)oc2c1` [Compound 181, N-[(6-{[(cyclohexylmethyl)amino]methyl}imidazo[1,2-a]pyridin-2-yl)methyl]-7-methyl-4-oxo-4H-chromene-2-carboxamide], for which, for the setting “Compounds 63-265”, the IC50 amounted to 179 nM.

For the compound `O=C(NCC1CCCCC1)c1ccc2nc(Cn3cc(-c4cccc5[nH]ncc45)nn3)cn2c1` [Example 249, N-(cyclohexylmethyl)-2-{[4-(1H-indazol-4-yl)-1H-1,2,3-triazol-1-yl]methyl}imidazo[1,2-a]pyridine-6-carboxamide], the half-inhibitory concentration (IC50) (Compounds 63-265) was determined as 229 nM.

For the compound `O=C(NCc1cn2cc(CNCC3CCCCO3)ccc2n1)c1cc(=O)n2ccccc2n1` (stereo not shown) [Compound 88, N-{[6-({[(oxan-2-yl)methyl]amino}methyl)imidazo[1,2-a]pyridin-2-yl]methyl}-4-oxo-4H-pyrido[1,2-a] pyrimidine-2-carboxamide], the IC50 (Compounds 63-265) amounted to 114 nM.
